Data taken from ChEMBL document CHEMBL1201862, “PubChem BioAssay data set” (2004).
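Interpolation was linear, between the two tested concentrations surrounding the appropriate level; five concentrations were tested over 48 hours in 96-well plates. GI50 is the concentration that inhibits growth by half.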 Active and inactive are the calls of the source. Cut-off read from the data, not from the text of the source: active = GI50 up to about 1.1 µM and inactive = higher.

Tests used:
Assay in all cases: NCI anticancer screen, dose series, 48 h
[1] = test system: 786-0
[2] = test system: A498
[3] = test system: A549
[4] = test system: ACHN
[5] = test system: BT-549
[6] = test system: CAKI-1
[7] = test system: CCRF-CEM
[8] = test system: COLO 205
[9] = test system: DU-145
[10] = test system: EKVX
[11] = test system: HCC 2998
[12] = test system: HCT-116
[13] = test system: HCT-15
[14] = test system: HL-60
[15] = test system: HOP-62
[16] = test system: HOP-92
[17] = test system: HT-29
[18] = test system: Hs-578T
[19] = test system: IGROV-1
[20] = test system: K562
[21] = test system: KM12
[22] = test system: LOX IMVI
[23] = test system: M14
[24] = test system: MCF7
[25] = test system: MDA-MB-231
[26] = test system: MDA-MB-435
[27] = test system: MDA-N
[28] = test system: MOLT-4
[29] = test system: Malme-3M
[30] = test system: NCI-H226
[31] = test system: NCI-H23
[32] = test system: NCI-H460
[33] = test system: NCI-H522
[34] = test system: NCI/ADR-RES
[35] = test system: OVCAR-3
[36] = test system: OVCAR-4
[37] = test system: OVCAR-5
[38] = test system: OVCAR-8
[39] = test system: PC-3
[40] = test system: RPMI-8226
[41] = test system: RXF 393
[42] = test system: SF-268
[43] = test system: SF-295
[44] = test system: SF-539
[45] = test system: SK-MEL-28
[46] = test system: SK-MEL-2
[47] = test system: SK-MEL-5
[48] = test system: SK-OV-3
[49] = test system: SN12C
[50] = test system: SNB-19
[51] = test system: SNB-75
[52] = test system: SR
[53] = test system: SW-620
[54] = test system: T47D
[55] = test system: TK-10
[56] = test system: U-251
[57] = test system: UACC-257
[58] = test system: UACC-62
[59] = test system: UO-31

`COc1cc2c(cc1OCCCC(=O)Nc1cc(C(=O)Nc3cc(C(=O)Nc4cc(C(=O)NCCCN(C)C)n(C)n4)n(C)c3)n(C)c1)N=CC1CCCN1C2=O` (centres undefined) was tested, and the GI50 [1] was 22.3 µM (inactive), the GI50 [2] was 29.2 µM (inactive) and the GI50 [3] was 49.3 µM (inactive). The GI50 [4] was 17.1 µM (inactive), the GI50 [5] was 22.1 µM (inactive) and the GI50 [6] was 25.1 µM (inactive). For the same compound, the GI50 [7] was 4.31 µM (inactive), the GI50 [8] was 21.2 µM (inactive) and the GI50 [9] was 32.1 µM (inactive). The GI50 [10] was 74 µM (inactive), the GI50 [11] was 28.1 µM (inactive) and the GI50 [12] was 51.4 µM (inactive). The GI50 [13] was 28.5 µM, the GI50 [14] was 2.52 µM (inactive) and the GI50 [15] was 25.8 µM (inactive). The GI50 [16] was 21.3 µM (inactive), the GI50 [17] was 20.3 µM (inactive) and the GI50 [18] was 22.1 µM (inactive). For the same compound, the GI50 [19] was 6.38 µM (inactive), the GI50 [20] was 5.2 µM (inactive) and the GI50 [21] was 24 µM (inactive). For the same compound, the GI50 [22] was 18.7 µM (inactive), the GI50 [23] was 24.3 µM (inactive) and the GI50 [24] was 16.8 µM (inactive). The GI50 [25] was 34.5 µM (inactive), the GI50 [26] was 21 µM (inactive) and the GI50 [27] was 20 µM (inactive). For the same compound, the GI50 [28] was 4.01 µM (inactive), the GI50 [29] was 18.7 µM (inactive) and the GI50 [30] was 25.1 µM (inactive). The GI50 [31] was 25.8 µM (inactive), the GI50 [32] was 25.9 µM (inactive) and the GI50 [33] was 2.28 µM (inactive). For the same compound, the GI50 [34] was 39.8 µM (inactive), the GI50 [35] was 40.3 µM (inactive) and the GI50 [36] was 20.1 µM (inactive). For the same compound, the GI50 [37] was 40 µM (inactive), the GI50 [38] was 33 µM (inactive) and the GI50 [39] was 23.6 µM (inactive). For the same compound, the GI50 [40] was 25.7 µM (inactive), the GI50 [41] was 19.8 µM (inactive) and the GI50 [42] was 27.9 µM (inactive). For the same compound, the GI50 [43] was 31.4 µM (inactive), the GI50 [44] was 23.1 µM (inactive) and the GI50 [45] was 17.1 µM (inactive). For the same compound, the GI50 [46] was 23.1 µM (inactive), the GI50 [47] was 19.5 µM (inactive) and the GI50 [48] was 40.6 µM (inactive). For the same compound, the GI50 [49] was 22.5 µM (inactive), the GI50 [50] was 22.5 µM (inactive) and the GI50 [51] was 23.9 µM (inactive). For the same compound, the GI50 [52] was 3.76 µM (inactive), the GI50 [53] was 20.6 µM (inactive) and the GI50 [54] was 48.5 µM (inactive). For the same compound, the GI50 [55] was 21 µM (inactive), the GI50 [56] was 23.9 µM (inactive) and the GI50 [57] was 19.7 µM (inactive). The GI50 [58] was 19.1 µM (inactive) and the GI50 [59] was 22.2 µM (inactive).
